Experiment: Relaxometric properties: longitudinal relaxivity r1p in human plasma
Format: physicochemical
Settings: expressed per mM gadolinium; for r1p at 0.47 T 37° C., human plasma: 0.47 T (20 MHz); for r1p at 1.41 T 37° C., human plasma: 1.41 T (60 MHz)
Procedure: The relaxometric properties of some representative complex compounds according to the invention have been determined at different magnetic field strengths, e.g. including 0.47 and 1.41 T, at 37° C., in human plasma and compared with relaxivity values measured, at the same conditions, for some Gd-complex of the market having an analogous cyclic coordination cage.
The longitudinal water proton relaxation rate (R1=1/T1) was measured at 0.47 T with a Minispec MQ-20 spectrometer (Bruker Biospin, Germany) operating at a proton Larmor frequency of 20 MHz; MR experiments at 1.41 T were performed using a Minispec MQ-60 spectrometer (Bruker Biospin, Germany) operating at a proton Larmor frequency of 60 MHz.
All test articles were used as supplied and diluted in the selected medium (human plasma) by weighting the required amount of paramagnetic chelated complex to get a starting solution of 5 or 10 mM concentration in gadolinium.
Relaxivity Measurements Five different concentration samples (0.1, 0.25, 0.5, 0.75 and 1 mM in gadolinium) for each medium have been prepared by further dilution of the starting 5 or 10 mM solution.
Relaxivity measurements were performed at 0.47 T and 1.41 T at a preset temperature sample of 37° C., kept constant by means of a thermostatic bath connected to the sample holder of the spectrometer. The five sample solutions have been preliminary pre-heated at 37° C. in an external thermostatic bath and then left 10 minutes inside the internal bath to assure the stabilization of the temperature. Longitudinal relaxation time T1 was measured by means of a standard inversion recovery sequence, where the inversion time (TI) was varied from 10 ms to at least 5 times T1 in 15 steps. Statistical analysis (mono-exponential fitting for T1 measurement, linear fitting for the evaluation of longitudinal relaxivity) was performed by Mathematica® (Wolfram, USA). Errors on the estimated parameters were evaluated by the fitting procedure.
The relaxivity values r1p of some representative compounds according to the invention, obtained in human plasma at 37° C., are summarized in the following Table A, together with the structure of tested compounds and the strength of the applied magnetic field (in T), and compared with corresponding values measured for two commercial contrast agents in clinical practice having a macrocyclic chelating cage.

| SMILES | r1p at 0.47 T 37° C., human plasma [mM⁻¹ s⁻¹] | r1p at 1.41 T 37° C., human plasma [mM⁻¹ s⁻¹] |
| --- | --- | --- |
| O=C(O)CN1CCN(CC(=O)O)CCN(CC(O)CN(CCOCCOCCO)CC(O)CN2CCN(CC(=O)O)CCN(CC(=O)O)CCN(CC(=O)O)CC2)CCN(CC(=O)O)CC1 (stereo not drawn) | 10.9 | 10.4 |
| COCCOCCOCCOCCN(CC(O)CN1CCN(CC(=O)O)CCN(CC(=O)O)CCN(CC(=O)O)CC1)CC(O)CN1CCN(CC(=O)O)CCN(CC(=O)O)CCN(CC(=O)O)CC1 (stereo not drawn) | 10.6 | 10.3 |
| O=C(O)CN1CCN(CC(=O)O)CCN(CC(O)CN(CC(O)CN2CCN(CC(=O)O)CCN(CC(=O)O)CCN(CC(=O)O)CC2)C(COCCOCCO)COCCOCCO)CCN(CC(=O)O)CC1 (stereo not drawn) | 10.1 | 9.8 |
| CC(O)CN1CCN(CC(=O)O)CCN(CC(=O)O)CCN(CC(=O)O)CC1 (stereo not drawn) (Gd complex, metal not drawn) [ProHance, reference compound] | 4.9 | 4.15 |
| COCCOCCOCCN(CCN(CCOCCOCCOC)CC(O)CN1CCN(CC(=O)O)CCN(CC(=O)O)CCN(CC(=O)O)CC1)CC(O)CN1CCN(CC(=O)O)CCN(CC(=O)O)CCN(CC(=O)O)CC1 (stereo not drawn) [Chelate Complex 9] | 12.1 | 11.5 |
| O=C(O)CN1CCN(CC(=O)O)CCN(CC(=O)O)CCN(CC(=O)O)CC1 [reference compound] | 4.5 | 3.6 |
